Measured values published in US20110251289A1, “NEW COMPOUNDS FOR THE TREATMENT OF CANCER” (CSIR, priority 2008, published 2011).
Values after ≈ are worked out from the molar mass of the structure shown.

Key:
Format in all cases: cell-based
[1] = system: Rhodotorula mucilaginosa; experiment: growth inhibition of fungal and yeast cells
Description: (§1) This selective inhibition of the growth of eukaryotes versus prokaryotes is a useful characteristic of the compound.

[2] = system: Aspergillus clavatus; experiment: growth inhibition of fungal and yeast cells
Description: as §1

[3] = system: Penicillium expansum; experiment: growth inhibition of fungal and yeast cells
Description: as §1

[4] = system: Debaryomyces hansenii; experiment: growth inhibition of fungal and yeast cells
Description: as §1

[5] = system: human lymphocytes; experiment: toxicity to human lymphocytes (IC50); conditions: Lymphocyte
[6] = system: MCF cells (breast cancer cells); experiment: MTT cytotoxicity assay, MCF cells; conditions: 200 μM, 48 h
Experimental: (§2) In addition, when HeLa and MCF cells (breast cancer cells) were exposed to 200 μM pavetamine for 48 h, 30% cell death occurred for HeLa cells and 25% for the MCF cells. The MTT (3-(4,5-dimethyl-2-thiazolyl)-2,5-diphenyl-2H-tetrazolium bromide) assay (Sigma, St Louis, USA) was used to measure the cytotoxicity of pavettamine in these cell lines.

[7] = system: HeLa cells; experiment: MTT cytotoxicity assay, HeLa cells; conditions: 200 μM, 48 h
Experimental: as §2

[8] = system: Actinomyces pyogenes; experiment: growth inhibition of bacterial cells
Description: as §1

[9] = system: Sphingobacterium spritivorum; experiment: growth inhibition of bacterial cells
Description: as §1

[10] = system: Pasteurella haemolytica; experiment: growth inhibition of bacterial cells
Description: as §1

[11] = system: Staphylococcus intermedius; experiment: growth inhibition of bacterial cells; conditions: Staphylococcus intermedius (3 strains)
Description: as §1

[12] = system: Bordetella bronchiseptica; experiment: growth inhibition of bacterial cells
Description: as §1

[13] = system: Selenastrum capricornumtum; experiment: algal growth inhibition test; conditions: 1 mM to 0.063 mM, 72 hrs exposure, optical density relative to control
Experimental: The algal (Selenastrum capricornumtum) growth inhibition test involves exposing the unicellular algae to the toxicant for 72 hrs, under defined conditions: at a temperature of 24° C. and in a test facility fitted with a cool white fluorescent light with a light intensity of ±4000 lux. The test facility is free of vapour, odours and dust which may be toxic to the algae.
Growth inhibition is measured as a reduction in growth rate relative to the control and is determined in terms of optical density. Definitive tests (testing serial dilutions) are carried out. The percentage growth inhibition in each test is usually reported as Effect or the 72 hr EC20 or EC50.

[14] = system: HeLa cancer cells; experiment: activity against HeLa cancer cells (toxicity, IC50)

## NC[C@@H](O)C[C@@H](O)CNC[C@H](O)C[C@H](O)CN [pavettamine, (2S,4R,8R,10S)-1,11-diamino-6-aza-undecane-2,4,8,10-tetraol]
[1]
  inhibitory activity towards growth of fungal and yeast cells: inhibitory activity
[2]
  inhibitory activity towards growth of fungal and yeast cells: inhibitory activity
[3]
  inhibitory activity towards growth of fungal and yeast cells: inhibitory activity
[4]
  inhibitory activity towards growth of fungal and yeast cells: inhibitory activity
[5]
  IC50: 2 µg/mL (≈ 7.96 µM)
[6]
  cell death, MCF cells: 25%
[7]
  cell death, HeLa cells: 30%
[8]
  inhibitory activity towards growth of bacterial cells: no inhibitory activity
[9]
  inhibitory activity towards growth of bacterial cells: no inhibitory activity
[10]
  inhibitory activity towards growth of bacterial cells: no inhibitory activity
[11]
  inhibitory activity towards growth of bacterial cells: no inhibitory activity
[12]
  inhibitory activity towards growth of bacterial cells: no inhibitory activity
[13]
  growth inhibition of algae: ≥ 98%
[14]; HeLa cancer cells versus human lymphocytes
  times more toxic to HeLa cancer cells than to human lymphocytes: 10 ×
[14]; Homo sapiens, HeLa
  IC50: 0.2 µg/mL (≈ 0.796 µM)
